Assay results reported in ChEMBL document CHEMBL4665709, “Rational Avoidance of Protease Cleavage Sites and Symmetrical End-Tagging Significantly Enhances the Stability and Therapeutic Potential of Antimicrobial Peptides” (J Med Chem, 2020).
≈ marks a conversion by molar mass, not a printed value. Where a SMILES comes first, the peptide text is derived from it.

Legend:
[1] = Therapeutic index, ratio of MHC for human RBC to geometric mean of peptide MIC for Staphylococcus epidermidis ATCC 12228; assay type: toxicity; details: human red blood cells (RBC), read-out: TI
[2] = tested on: Erythrocyte; test: Hemolytic activity in human RBC assessed as hemolysis; assay type: ADME, cell-based
[3] = Therapeutic index, ratio of MHC for human RBC to geometric mean of peptide MIC for Escherichia coli UB1005; assay type: toxicity; details: human red blood cells (RBC), read-out: TI
[4] = Therapeutic index, ratio of MHC for human RBC to geometric mean of peptide MIC for Salmonella choleraesuis 503; assay type: toxicity; details: human red blood cells (RBC), read-out: TI
[5] = Therapeutic index, ratio of MHC for human RBC to geometric mean of peptide MIC for methicillin-resistant Staphylococcus aureus 43300; assay type: toxicity; details: human red blood cells (RBC), read-out: TI
[6] = tested on: Staphylococcus aureus; test: Antibacterial activity against Staphylococcus aureus ATCC 29213 after 18 to 24 hrs by CLSI-based broth microdilution method; assay type: functional; details: time hrs 18-24
[7] = tested on: Staphylococcus aureus; test: Antibacterial activity against Staphylococcus aureus ATCC 29213 after 18 to 24 hrs in presence of 6 uM Fe3+ by CLSI-based broth microdilution method; assay type: functional; details: time hrs 18-24
[8] = tested on: Staphylococcus aureus; test: Antibacterial activity against Staphylococcus aureus 11011 after 18 to 24 hrs by CLSI-based broth microdilution method; assay type: functional; details: time hrs 18-24
[9] = tested on: Staphylococcus aureus; test: Antibacterial activity against methicillin-resistant Staphylococcus aureus 43300 after 18 to 24 hrs by CLSI-based broth microdilution method; assay type: functional; details: time hrs 18-24
[10] = tested on: Staphylococcus aureus; test: Antibacterial activity against Staphylococcus aureus ATCC 29213 after 18 to 24 hrs in presence of 150 mM Na+ by CLSI-based broth microdilution method; assay type: functional; details: time hrs 18-24
[11] = tested on: Escherichia coli; test: Antibacterial activity against Escherichia coli ATCC 25922 after 18 to 24 hrs in presence of 50% human serum by CLSI-based broth microdilution method; assay type: functional; details: time hrs 18-24
[12] = tested on: Streptococcus agalactiae; test: Antibacterial activity against Streptococcus agalactiae H92 after 18 to 24 hrs by CLSI-based broth microdilution method; assay type: functional; details: time hrs 18-24
[13] = Therapeutic index, ratio of MHC for human RBC to geometric mean of peptide MIC for Streptococcus agalactiae H92; assay type: toxicity; details: human red blood cells (RBC), read-out: TI
[14] = tested on: Staphylococcus aureus; test: Antibacterial activity against Staphylococcus aureus ATCC 29213 after 18 to 24 hrs in presence of 6 uM NH4+ by CLSI-based broth microdilution method; assay type: functional; details: time hrs 18-24
[15] = tested on: Escherichia coli; test: Antibacterial activity against Escherichia coli ATCC 25922 after 18 to 24 hrs in presence of 6 uM NH4+ by CLSI-based broth microdilution method; assay type: functional; details: time hrs 18-24
[16] = tested on: Staphylococcus aureus; test: Antibacterial activity against Staphylococcus aureus ATCC 29213 after 18 to 24 hrs in presence of 1 mM Mg2+ by CLSI-based broth microdilution method; assay type: functional; details: time hrs 18-24
[17] = tested on: Salmonella typhimurium; test: Antibacterial activity against Salmonella typhimurium 14028 after 18 to 24 hrs by CLSI-based broth microdilution method; assay type: functional, Salmonella enterica subsp. enterica serovar Typhimurium; details: Salmonella enterica, time hrs 18-24
[18] = Antibacterial activity against Salmonella pullorum 7913 after 18 to 24 hrs by CLSI-based broth microdilution method; assay type: functional, Salmonella enterica subsp. enterica serovar Pullorum; details: Salmonella enterica, time hrs 18-24
[19] = tested on: Salmonella enterica; test: Antibacterial activity against Salmonella choleraesuis 503 after 18 to 24 hrs by CLSI-based broth microdilution method; assay type: functional; details: time hrs 18-24
[20] = Stability of compound at 100 degreeC after 30 to 90 mins; assay type: physicochemical; details: time 30-90 min
[21] = Therapeutic index, ratio of MHC for human RBC to geometric mean of peptide MIC for Escherichia coli ATCC 25922; assay type: toxicity; details: human red blood cells (RBC), read-out: TI
[22] = tested on: Escherichia coli; test: Antibacterial activity against Escherichia coli UB1005 after 18 to 24 hrs by CLSI-based broth microdilution method; assay type: functional; details: time hrs 18-24
[23] = tested on: Escherichia coli; test: Antibacterial activity against Escherichia coli ATCC 25922 after 18 to 24 hrs in presence of 4.5 mM K+ by CLSI-based broth microdilution method; assay type: functional; details: time hrs 18-24
[24] = tested on: Staphylococcus aureus; test: Antibacterial activity against Staphylococcus aureus ATCC 29213 after 18 to 24 hrs in presence of 8 uM Zn2+ by CLSI-based broth microdilution method; assay type: functional; details: time hrs 18-24
[25] = tested on: Escherichia coli; test: Antibacterial activity against Escherichia coli ATCC 25922 after 18 to 24 hrs in presence of 150 mM Na+ by CLSI-based broth microdilution method; assay type: functional; details: time hrs 18-24
[26] = tested on: Staphylococcus aureus; test: Antibacterial activity against Staphylococcus aureus ATCC 29213 after 18 to 24 hrs in presence of 100% human serum by CLSI-based broth microdilution method; assay type: functional; details: time hrs 18-24
[27] = tested on: Escherichia coli; test: Antibacterial activity against Escherichia coli ATCC 25922 after 18 to 24 hrs in presence of 6 uM Fe3+ by CLSI-based broth microdilution method; assay type: functional; details: time hrs 18-24
[28] = tested on: Enterococcus faecalis; test: Antibacterial activity against Enterococcus faecalis ATCC 29212 after 18 to 24 hrs by CLSI-based broth microdilution method; assay type: functional; details: time hrs 18-24
[29] = Cytotoxicity against HEK-293T cells assessed as cell viability at 128 uM by MTT assay relative to control; assay type: cell-based; details: human, read-out: Activity
[30] = Therapeutic index, ratio of MHC for human RBC to geometric mean of peptide MIC for Salmonella typhimurium 7731; assay type: toxicity; details: human red blood cells (RBC), read-out: TI
[31] = tested on: Salmonella typhimurium; test: Antibacterial activity against Salmonella typhimurium 7731 after 18 to 24 hrs by CLSI-based broth microdilution method; assay type: functional, Salmonella enterica subsp. enterica serovar Typhimurium; details: Salmonella enterica, time hrs 18-24
[32] = tested on: Escherichia coli; test: Antibacterial activity against Escherichia coli ATCC 25922 after 18 to 24 hrs by CLSI-based broth microdilution method; assay type: functional; details: time hrs 18-24
[33] = tested on: Escherichia coli; test: Antibacterial activity against Escherichia coli ATCC 25922 after 18 to 24 hrs in presence of 100% human serum by CLSI-based broth microdilution method; assay type: functional; details: time hrs 18-24
[34] = tested on: Staphylococcus aureus; test: Antibacterial activity against Staphylococcus aureus ATCC 29213 after 18 to 24 hrs in presence of 4.5 mM K+ by CLSI-based broth microdilution method; assay type: functional; details: time hrs 18-24
[35] = tested on: Staphylococcus aureus; test: Antibacterial activity against Staphylococcus aureus ATCC 29213 after 18 to 24 hrs in presence of 25% human serum by CLSI-based broth microdilution method; assay type: functional; details: time hrs 18-24
[36] = tested on: Escherichia coli; test: Antibacterial activity against Escherichia coli ATCC 25922 after 18 to 24 hrs in presence of 8 uM Zn2+ by CLSI-based broth microdilution method; assay type: functional; details: time hrs 18-24
[37] = tested on: Escherichia coli; test: Antibacterial activity against Escherichia coli ATCC 25922 after 18 to 24 hrs in presence of 1 mM Mg2+ by CLSI-based broth microdilution method; assay type: functional; details: time hrs 18-24
[38] = Therapeutic index, ratio of MHC for human RBC to geometric mean of peptide MIC for Staphylococcus aureus 11011; assay type: toxicity; details: human red blood cells (RBC), read-out: TI
[39] = tested on: Staphylococcus aureus; test: Antibacterial activity against Staphylococcus aureus ATCC 29213 after 18 to 24 hrs in presence of 50% human serum by CLSI-based broth microdilution method; assay type: functional; details: time hrs 18-24
[40] = tested on: Staphylococcus epidermidis; test: Antibacterial activity against Staphylococcus epidermidis ATCC 12228 after 18 to 24 hrs by CLSI-based broth microdilution method; assay type: functional; details: time hrs 18-24
[41] = Therapeutic index, ratio of MHC for human RBC to geometric mean of peptide MIC for Staphylococcus aureus ATCC 29213; assay type: toxicity; details: human red blood cells (RBC), read-out: TI
[42] = Therapeutic index, ratio of MHC for human RBC to geometric mean of peptide MIC for Salmonella pullorum 7913; assay type: toxicity; details: human red blood cells (RBC), read-out: TI
[43] = Hemolytic activity in human RBC assessed as hemolysis at 1 to 128 uM relative to control; assay type: ADME, cell-based, Erythrocyte; details: human red blood cells (RBC), dose 1-128 µM, read-out: Activity
[44] = Therapeutic index, ratio of MHC for human RBC to geometric mean of peptide MIC for Enterococcus faecalis ATCC 29212; assay type: toxicity; details: human red blood cells (RBC), read-out: TI
[45] = Therapeutic index, ratio of MHC for human RBC to geometric mean of peptide MIC for Salmonella typhimurium 14028; assay type: toxicity; details: human red blood cells (RBC), read-out: TI
[46] = tested on: Escherichia coli; test: Antibacterial activity against Escherichia coli ATCC 25922 after 18 to 24 hrs in presence of 25% human serum by CLSI-based broth microdilution method; assay type: functional; details: time hrs 18-24
[47] = Cytotoxicity against mouse RAW264.7 cells assessed as cell viability at 128 uM by MTT assay relative to control; assay type: cell-based; details: read-out: Activity

CC[C@H](C)[C@H](N)C(=O)N[C@@H](CS)C(=O)N[C@@H](CCCNC(=N)N)C(=O)N[C@@H](CCCCN)C(=O)N1CCC[C@H]1C(=O)N[C@H](C(=O)N[C@H](C(=O)N[C@@H](CS)C(=O)N[C@@H](CCCNC(=N)N)C(=O)N[C@@H](CCCCN)C(=O)N1CCC[C@H]1C(=O)N[C@H](C(=O)N[C@H](C(=O)N[C@@H](CS)C(=O)N[C@@H](CCCNC(=N)N)C(=O)N[C@@H](CCCCN)C(=O)N1CCC[C@H]1C(=O)N[C@H](C(=O)N[C@H](C(=O)N[C@@H](CS)C(=O)N[C@@H](CCCNC(=N)N)C(=O)N[C@@H](CCCCN)C(=O)N1CCC[C@H]1C(=O)N[C@H](C(N)=O)[C@@H](C)CC)[C@@H](C)CC)[C@@H](C)CC)[C@@H](C)CC)[C@@H](C)CC)[C@@H](C)CC)[C@@H](C)CC (H-ICRKPIICRKPIICRKPIICRKPI-NH2)
selectivity ratio [1]: 2 | MHC [2]: > 128 µM | selectivity ratio [3]: 32 | selectivity ratio [4]: 32 | selectivity ratio [5]: 2 | MIC [6]: > 64 µM | MIC [7]: > 64 µM | MIC [8]: > 64 µM | MIC [9]: > 64 µM | MIC [10]: > 64 µM | MIC [11]: 8 µM | MIC [12]: > 64 µM | selectivity ratio [13]: 2 | MIC [14]: > 64 µM | MIC [15]: 2 µM | MIC [16]: > 64 µM | MIC [17]: 2 µM (≈ 5.72 µg/mL) | MIC [18]: 16 µM (≈ 45.8 µg/mL) | MIC [19]: 8 µM (≈ 22.9 µg/mL) | Stabilty [20]: Stable | selectivity ratio [21]: 32 | MIC [22]: 2 µM (≈ 5.72 µg/mL) | MIC [23]: 4 µM | MIC [24]: > 64 µM | MIC [25]: 32 µM | MIC [26]: > 64 µM | MIC [27]: 4 µM | MIC [28]: > 64 µM | viability at 128 µM [29]: > 90% | selectivity ratio [30]: 32 | MIC [31]: 4 µM (≈ 11.4 µg/mL) | MIC [32]: 2 µM (≈ 5.72 µg/mL) | MIC [33]: 16 µM | MIC [34]: > 64 µM | MIC [35]: > 64 µM | MIC [36]: 2 µM | MIC [37]: 8 µM | selectivity ratio [38]: 2 | MIC [39]: > 64 µM | MIC [40]: > 64 µM | selectivity ratio [41]: 2 | selectivity ratio [42]: 32 | hemolysis at up to 128 µM [43]: < 5% | selectivity ratio [44]: 2 | selectivity ratio [45]: 32 | MIC [46]: 4 µM | viability at 128 µM [47]: > 90%
